The record followed here is ChEMBL document CHEMBL6078719, “Discovery of acetohydroxyacid synthase inhibitors as anti-tuberculosis lead compounds from natural products” (Bioorg Med Chem, 2025).

Values after ≈ are worked out from the molar mass of the structure shown. Active and inactive are the calls of the source. A value given as a limit tells only on which side of the number the result lay.

In series [1] the test system is Mycolicibacterium smegmatis. As to the kind of experiment: Antibacterial activity against Mycobacterium smegmatis assessed as inhibition of bacterial growth incubated for 3 days by alamar blue staining based assay. The following applies: 72 h, time 3 day. The class given is functional. (In general: Resazurin is reduced to fluorescent resorufin, in cell work by metabolically active cells.)

Series [2] is described as follows: Inhibition of Mycobacterium tuberculosis Acetohydroxy acid synthase using pyruvate as substrate incubated for 10 mins followed by substrate addition by colorimetric assay.
Series [3] in a line: Inhibition of Mycobacterium tuberculosis Acetohydroxy acid synthase using pyruvate as substrate at 40 uM incubated for 10 mins followed by substrate addition by colorimetric assay relative to control.
The nature of series [4]: Cytotoxicity against human THP-1 cells incubated for 48 hrs by CCK8 assay. Type of series: toxicity, cell-based.
For series [5], the system named is Mycolicibacterium smegmatis. As to the kind of experiment: Synergistic antibacterial activity against Mycobacterium smegmatis assessed as inhibition of bacterial growth incubated for 3 days in presence of rifampicin by alamar blue staining based assay. The following applies: time 3.0 day. Type of series: functional, organism-based.
The nature of series [6]: Binding affinity to Mycobacterium tuberculosis Acetohydroxy acid synthase assessed as binding constant by isothermal titration calorimetry.
The test system of series [7] is Mycobacterium tuberculosis. As to the kind of experiment: Synergistic antibacterial activity against Mycobacterium tuberculosis assessed as inhibition of bacterial growth incubated for 3 days in presence of rifampicin by alamar blue staining based assay. The following applies: time 3.0 day. Type of series: functional, organism-based.
The test system of series [8] is Mycobacterium tuberculosis. In words: Antibacterial activity against Mycobacterium tuberculosis assessed as inhibition of bacterial growth incubated for 3 days by alamar blue staining based assay. Type of series: functional. The following applies: 72 h, time 3 day.
Series [9] is described as follows: Selectivity index, ratio of IC50 for cytotoxicity against human THP-1 cells to MIC90 for antimycobacterial activity against Mycobacterium tuberculosis. The class given is toxicity, cell-based. To be noted: read-out: Selectivity Index.
The subject of series [10] is Mycobacterium tuberculosis. In words: Binding affinity to Mycobacterium tuberculosis Acetohydroxy acid synthase assessed as gibbs free energy change by isothermal titration calorimetry. On the technique in general: ITC needs no label: the signal is the heat of the interaction.
In series [11] the test system is Mycobacterium tuberculosis. In words: Binding affinity to Mycobacterium tuberculosis Acetohydroxy acid synthase assessed as change in enthalpy by isothermal titration calorimetry.
Series [12] deals with Mycobacterium tuberculosis. In words: Antimycobacterial activity against Mycobacterium tuberculosis assessed as inhibition of bacterial growth. Type of series: functional.

What is called MIC is the smallest concentration in the dilution series that meets the test's criterion for growth inhibition. As usually defined, the IC50 is the concentration that gives 50% inhibition. Higher therefore signals a need for much substance. One may read the inhibition as the percentage by which the read-out fell short of the control. A low value points to a response near the control. What is called Kd is the concentration at which binding is half-saturated. One may read the MIC90 as an inhibitory concentration at the 90% level, which refers to growth in some studies and to a panel of isolates in others.

`COc1ccc(-c2oc3c(CCC(C)(C)O)c(O)cc(O)c3c(=O)c2O)cc1`: the MIC in series [1] was greater than 5000 µM. The molecule also yielded an IC50 in series [2] of 32.4 µM. This molecule also had an inhibition in series [3] greater than 90%.
`CC1=C(O)C(=O)C=C2C1=CC=C1[C@@]2(C)CC[C@@]2(C)[C@@H]3C[C@](C)(C(=O)O)CC[C@]3(C)CC[C@]12C` [CELASTROL]: the values for the MIC in series [1] and in series [8] were 62.5 µM (≈ 28.2 µg/mL) and 80 µM (≈ 36 µg/mL), respectively. Further, inhibition in series [4] was half-maximal at 12.5 µM (IC50 at 48 h). For the same molecule, the outcome in series [5] and in series [7] was inactive. Further, the Kd in [6] came out at 1900 nM. In addition, in series [2], the IC50 is 0.81 µM. Further, in series [3], the inhibition is greater than 90%. Moreover, the selectivity ratio in [9] is less than 1. In series [10], the deltaG was -7.81 kcal/mol. In [11], the deltaH is -9.87 kcal/mol. In addition, the MIC90 in [12] came out at 80 µM (≈ 36 µg/mL).
Regarding `CCCCCCCCCCCC1=C(O)C(=O)C=C(O)C1=O` [EMBELIN], the MIC in series [1] was greater than 5000 µM. The molecule also displayed an IC50 in series [2] of 9.46 µM. Besides, the inhibition in series [3] was greater than 90%.
For the molecule `O=C(/C=C/c1ccc(O)c(O)c1/C=C/c1ccc(O)c(O)c1)O[C@H](Cc1ccc(O)c(O)c1)C(=O)O` [SALVIANOLIC ACID A], the minimum inhibitory concentration (MIC) in [1] turned out to be 125 µM (≈ 61.8 µg/mL); in [8], 312 µM (≈ 155 µg/mL). Moreover, the result in series [5] and in series [7] was inactive. This molecule came in with an IC50 in series [2] of 0.84 µM. Further, the inhibition in series [3] is greater than 90%.
As for `COC(=O)c1ccccc1S(=O)(=O)NC(=O)Nc1nc(C)cc(C)n1` [SULFOMETURON METHYL], the MIC in series [1] came to 7.8 µM (≈ 2.84 µg/mL). In addition, the IC50 in series [2] turned out to be 3.68 µM. Moreover, the inhibition in [3] is greater than 90%.
